Test results reported in patent US20150105252A1, “SUBSTITUTED PYRAZOLES AS HERBICIDES” (E I DU PONT DE NEMOURS AND COMPANY, priority 2013, published 2015).

Columns and labels:
sedge, umbrella [1] = experiment: Test B flood; type: in vivo, Cyperus difformis; settings: 250 g ai/ha, visual rating on 0 to 100 scale (0 no effect, 100 complete control), 13 to 15 days
Procedure, shortened: (§1)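 Plants were grown to the 2-leaf stage and pots flooded to 3 cm above soil. Compounds were applied directly into the paddy water, with depth kept for the test. After 13–15 days in greenhouse, response was rated visually against controls on a 0 (no effect) to 100 (complete control) scale.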

barnyardgrass [2] = experiment: Test A preemergence; type: in vivo, Echinochloa crus-galli; settings: preemergence
Procedure, shortened: (§2)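 Ratings express plant response from 0 (no effect) to 100 (complete control), judged visually against untreated controls after approximately 10 days in the greenhouse. Preemergence applications were made as directed soil sprays onto seeded loam–sand mix, and postemergence applications onto 2–10 cm plants at one- to two-leaf stage.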

rice [3] = experiment: Test C flooded paddy test; type: in vivo, Oryza sativa; settings: Flood
Procedure, shortened: (§3)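 Ratings were visual and made relative to untreated controls after 13 to 15 greenhouse days.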

sedge, umbrella [4] = experiment: Test C flooded paddy test; type: in vivo, Cyperus difformis; settings: Flood
Procedure, shortened: as §3

pigweed [5] = experiment: Test A preemergence; type: in vivo, Amaranthus retroflexus; settings: preemergence
Procedure, shortened: as §2

velvetleaf [6] = experiment: Test A preemergence; type: in vivo, Abutilon theophrasti; settings: preemergence
Procedure, shortened: as §2

barnyardgrass [7] = experiment: Test A postemergence; type: in vivo, Echinochloa crus-galli
Procedure, shortened: as §2

crabgrass, large [8] = experiment: Test A preemergence; type: in vivo, Digitaria sanguinalis; settings: preemergence
Procedure, shortened: as §2

barnyardgrass [9] = experiment: Test B flood; type: in vivo, Echinochloa crus-galli; settings: 250 g ai/ha, visual rating on 0 to 100 scale (0 no effect, 100 complete control), 13 to 15 days
Procedure, shortened: as §1

rice [10] = experiment: Test B flood; type: in vivo, Oryza sativa; settings: 250 g ai/ha, visual rating on 0 to 100 scale (0 no effect, 100 complete control), 13 to 15 days
Procedure, shortened: as §1

foxtail, giant [11] = experiment: Test A preemergence; type: in vivo, Setaria faberii; settings: preemergence
Procedure, shortened: as §2

crabgrass, large [12] = experiment: Test A postemergence; type: in vivo, Digitaria sanguinalis
Procedure, shortened: as §2

morningglory [13] = experiment: Test A preemergence; type: in vivo, Ipomoea spp.; settings: preemergence
Procedure, shortened: as §2

wheat [14] = experiment: Test A postemergence; type: in vivo, Triticum aestivum
Procedure, shortened: as §2

barnyardgrass [15] = experiment: Test C flooded paddy test; type: in vivo, Echinochloa crus-galli; settings: Flood
Procedure, shortened: as §3

foxtail, giant [16] = experiment: Test A postemergence; type: in vivo, Setaria faberii
Procedure, shortened: as §2

pigweed [17] = experiment: Test A postemergence; type: in vivo, Amaranthus retroflexus
Procedure, shortened: as §2

corn [18] = experiment: Test A preemergence; type: in vivo, Zea mays; settings: preemergence
Procedure, shortened: as §2

morningglory [19] = experiment: Test A postemergence; type: in vivo, Ipomoea spp.
Procedure, shortened: as §2

ducksalad [20] = experiment: Test B flood; type: in vivo, Heteranthera limosa; settings: 250 g ai/ha, visual rating on 0 to 100 scale (0 no effect, 100 complete control), 13 to 15 days
Procedure, shortened: as §1

velvetleaf [21] = experiment: Test A postemergence; type: in vivo, Abutilon theophrasti
Procedure, shortened: as §2

corn [22] = experiment: Test A postemergence; type: in vivo, Zea mays
Procedure, shortened: as §2

ducksalad [23] = experiment: Test C flooded paddy test; type: in vivo, Heteranthera limosa; settings: Flood
Procedure, shortened: as §3

wheat [24] = experiment: Test A preemergence; type: in vivo, Triticum aestivum; settings: preemergence
Procedure, shortened: as §2

[25] = 125 g ai/ha, visual injury, 0 to 100 scale, approx. 10 days
[26] = 500 g ai/ha, visual injury after approx. 10 days, 0 to 100 scale (0 no effect, 100 complete control)
[27] = 31 g ai/ha, scale 0 to 100 (0 no effect, 100 complete control)
[28] = 62 g ai/ha, scale 0 to 100 (0 no effect, 100 complete control)
[29] = 125 g ai/ha, visual injury approx. 10 days after treatment
[30] = Postemergence, 500 g ai/ha, 0 to 100 scale (0 no effect, 100 complete control)
[31] = postemergence, 125 g ai/ha, about 10 days, visual rating on 0 to 100 scale (0 no effect, 100 complete control)

For `CCCNC(=O)c1cc(COC)n(Cc2ccnc(C(F)(F)F)c2)n1` [Compound 168], the “Plant response rating, Sedge, Umbrella” value (sedge, umbrella [1]) was 90, the “Barnyardgrass plant response rating” value (barnyardgrass [2]; [25]) was 20 and the “Barnyardgrass plant response rating” value (barnyardgrass [2]; [26]) was 100. For the same compound, the “Plant response rating, Rice” value (rice [3]; [27]) was 0, the “Plant response rating, Rice” value (rice [3]; [28]) was 0 and the “Plant response rating, Rice” value (rice [3]; 125 g ai/ha, scale 0 to 100) was 0. The “Plant response rating, Sedge, Umbrella” value (sedge, umbrella [4]; [27]) was 0, the “Plant response rating, Sedge, Umbrella” value (sedge, umbrella [4]; [28]) was 50 and the “Plant response rating, Sedge, Umbrella” value (sedge, umbrella [4]; 125 g ai/ha, scale 0 to 100) was 80. For the same compound, the “Pigweed plant response rating (0 to 100 scale)” value (pigweed [5]; [29]) was 100, the “Pigweed plant response rating” value (pigweed [5]; [26]) was 100 and the “Velvetleaf plant response rating (0 to 100 scale)” value (velvetleaf [6]; [29]) was 20. For the same compound, the “Velvetleaf plant response rating” value (velvetleaf [6]; [26]) was 100, the “Barnyardgrass plant response rating” value (barnyardgrass [7]; [30]) was 90 and the “Barnyardgrass plant response rating” value (barnyardgrass [7]; [31]) was 50. For the same compound, the “Crabgrass, Large plant response rating (0 to 100 scale)” value (crabgrass, large [8]; [29]) was 100, the “Crabgrass, Large plant response rating” value (crabgrass, large [8]; [26]) was 100 and the “Plant response rating, Barnyardgrass” value (barnyardgrass [9]) was 20. The “Plant response rating, Rice” value (rice [10]) was 20, the “Foxtail, Giant plant response rating (0 to 100 scale)” value (foxtail, giant [11]; [29]) was 90 and the “Foxtail, Giant plant response rating” value (foxtail, giant [11]; [26]) was 100. The “Crabgrass, Large plant response rating” value (crabgrass, large [12]; [30]) was 90, the “Crabgrass, Large plant response rating” value (crabgrass, large [12]; [31]) was 60 and the “Morningglory plant response rating (0 to 100 scale)” value (morningglory [13]; [29]) was 80. The “Morningglory plant response rating” value (morningglory [13]; [26]) was 100, the “Wheat plant response rating” value (wheat [14]; [30]) was 40 and the “Wheat plant response rating” value (wheat [14]; [31]) was 0. The “Plant response rating, Barnyardgrass” value (barnyardgrass [15]; [27]) was 0, the “Plant response rating, Barnyardgrass” value (barnyardgrass [15]; [28]) was 0 and the “Plant response rating, Barnyardgrass” value (barnyardgrass [15]; 125 g ai/ha, scale 0 to 100) was 0. For the same compound, the “Foxtail, Giant plant response rating” value (foxtail, giant [16]; [30]) was 90, the “Foxtail, Giant plant response rating” value (foxtail, giant [16]; [31]) was 60 and the “Pigweed plant response rating” value (pigweed [17]; [30]) was 100. For the same compound, the “Pigweed plant response rating” value (pigweed [17]; [31]) was 80, the “Corn plant response rating (0 to 100 scale)” value (corn [18]; [29]) was 0 and the “Corn plant response rating” value (corn [18]; [26]) was 20. For the same compound, the “Morningglory plant response rating” value (morningglory [19]; [30]) was 100, the “Morningglory plant response rating” value (morningglory [19]; [31]) was 70 and the “Plant response rating, Ducksalad” value (ducksalad [20]) was 90. The “Velvetleaf plant response rating” value (velvetleaf [21]; [30]) was 70, the “Velvetleaf plant response rating” value (velvetleaf [21]; [31]) was 40 and the “Corn plant response rating” value (corn [22]; [30]) was 80. For the same compound, the “Corn plant response rating” value (corn [22]; [31]) was 20, the “Plant response rating, Ducksalad” value (ducksalad [23]; [27]) was 0 and the “Plant response rating, Ducksalad” value (ducksalad [23]; [28]) was 50. For the same compound, the “Plant response rating, Ducksalad” value (ducksalad [23]; 125 g ai/ha, scale 0 to 100) was 70, the “Wheat plant response rating (0 to 100 scale)” value (wheat [24]; [29]) was 10 and the “Wheat plant response rating” value (wheat [24]; [26]) was 70.
In the case of `CCCCNC(=O)c1cc(CC)n(Cc2ccnc(C(F)(F)F)c2)n1` [Compound 141], the “Plant response rating, Sedge, Umbrella” value (sedge, umbrella [1]) is reported as 95, the “Barnyardgrass plant response rating” value (barnyardgrass [2]; [25]) is reported as 70 and the “Barnyardgrass plant response rating” value (barnyardgrass [2]; [26]) is reported as 100. For the same compound, the “Plant response rating, Rice” value (rice [3]; [27]) was 0, the “Plant response rating, Rice” value (rice [3]; [28]) was 0 and the “Plant response rating, Rice” value (rice [3]; 125 g ai/ha, scale 0 to 100) was 20. For the same compound, the “Plant response rating, Rice” value (rice [3]; 250 g ai/ha, scale 0 to 100) was 20, the “Plant response rating, Sedge, Umbrella” value (sedge, umbrella [4]; [27]) was 30 and the “Plant response rating, Sedge, Umbrella” value (sedge, umbrella [4]; [28]) was 70. The “Plant response rating, Sedge, Umbrella” value (sedge, umbrella [4]; 125 g ai/ha, scale 0 to 100) was 95, the “Plant response rating, Sedge, Umbrella” value (sedge, umbrella [4]; 250 g ai/ha, scale 0 to 100) was 100 and the “Pigweed plant response rating” value (pigweed [5]; [25]) was 100. The “Pigweed plant response rating” value (pigweed [5]; [26]) was 100, the “Velvetleaf plant response rating” value (velvetleaf [6]; [25]) was 10 and the “Velvetleaf plant response rating” value (velvetleaf [6]; [26]) was 50. For the same compound, the “Barnyardgrass plant response rating” value (barnyardgrass [7]; [30]) was 80, the “Barnyardgrass plant response rating” value (barnyardgrass [7]; [31]) was 40 and the “Crabgrass, Large plant response rating” value (crabgrass, large [8]; [25]) was 100. For the same compound, the “Crabgrass, Large plant response rating” value (crabgrass, large [8]; [26]) was 100, the “Plant response rating, Barnyardgrass” value (barnyardgrass [9]) was 45 and the “Plant response rating, Rice” value (rice [10]) was 20. The “Foxtail, Giant plant response rating” value (foxtail, giant [11]; [25]) was 90, the “Foxtail, Giant plant response rating” value (foxtail, giant [11]; [26]) was 100 and the “Crabgrass, Large plant response rating” value (crabgrass, large [12]; [30]) was 90. The “Crabgrass, Large plant response rating” value (crabgrass, large [12]; [31]) was 70, the “Morningglory plant response rating” value (morningglory [13]; [25]) was 50 and the “Morningglory plant response rating” value (morningglory [13]; [26]) was 100. For the same compound, the “Wheat plant response rating” value (wheat [14]; [30]) was 80, the “Wheat plant response rating” value (wheat [14]; [31]) was 30 and the “Plant response rating, Barnyardgrass” value (barnyardgrass [15]; [27]) was 0. The “Plant response rating, Barnyardgrass” value (barnyardgrass [15]; [28]) was 0, the “Plant response rating, Barnyardgrass” value (barnyardgrass [15]; 125 g ai/ha, scale 0 to 100) was 20 and the “Plant response rating, Barnyardgrass” value (barnyardgrass [15]; 250 g ai/ha, scale 0 to 100) was 35. For the same compound, the “Foxtail, Giant plant response rating” value (foxtail, giant [16]; [30]) was 90, the “Foxtail, Giant plant response rating” value (foxtail, giant [16]; [31]) was 80 and the “Pigweed plant response rating” value (pigweed [17]; [30]) was 100. For the same compound, the “Pigweed plant response rating” value (pigweed [17]; [31]) was 60, the “Corn plant response rating” value (corn [18]; [25]) was 40 and the “Corn plant response rating” value (corn [18]; [26]) was 80. The “Morningglory plant response rating” value (morningglory [19]; [30]) was 100, the “Morningglory plant response rating” value (morningglory [19]; [31]) was 90 and the “Plant response rating, Ducksalad” value (ducksalad [20]) was 100. For the same compound, the “Velvetleaf plant response rating” value (velvetleaf [21]; [30]) was 100, the “Velvetleaf plant response rating” value (velvetleaf [21]; [31]) was 30 and the “Corn plant response rating” value (corn [22]; [30]) was 90. The “Corn plant response rating” value (corn [22]; [31]) was 50, the “Plant response rating, Ducksalad” value (ducksalad [23]; [27]) was 40 and the “Plant response rating, Ducksalad” value (ducksalad [23]; [28]) was 80. For the same compound, the “Plant response rating, Ducksalad” value (ducksalad [23]; 125 g ai/ha, scale 0 to 100) was 95, the “Plant response rating, Ducksalad” value (ducksalad [23]; 250 g ai/ha, scale 0 to 100) was 100 and the “Wheat plant response rating” value (wheat [24]; [25]) was 30. The “Wheat plant response rating” value (wheat [24]; [26]) was 90.
